± gives the expanded uncertainty stated by the source.
What was measured:
[1] = Crystal
[2] = Molar enthalpy of transition or fusion; settings: Crystal
[3] = molar heat capacity at constant pressure; settings: 101.33 kPa

CCCCCCCCCCCC(=O)O.Cc1cc(C)nc(Nc2ccccc2)n1 [4,6-dimethyl-N-phenylpyrimidin-2-amine dodecanoate]
Settings | Molar enthalpy of transition or fusion [kcal/mol] | Triple point temperature [K]
[1] | – | 321.52 ± 0.12
[2] | 16.07 ± 0.0263 | –

[3]
Settings | molar heat capacity at constant pressure [J/K/mol]
78.4 K, Crystal | 214.56 ± 2.3
80.59 K, Crystal | 219.02 ± 2.4
82.77 K, Crystal | 224.04 ± 2.4
84.91 K, Crystal | 229.03 ± 2.5
87.02 K, Crystal | 231.07 ± 2.5
89.13 K, Crystal | 235.38 ± 2.6
91.21 K, Crystal | 238.58 ± 2.3
93.27 K, Crystal | 241.25 ± 2.3
95.35 K, Crystal | 244.45 ± 2.4
97.44 K, Crystal | 249.07 ± 2.4
99.52 K, Crystal | 255.64 ± 2.4
101.56 K, Crystal | 258.48 ± 2.5
103.55 K, Crystal | 262.85 ± 2.5
105.48 K, Crystal | 266.32 ± 2.5
107.37 K, Crystal | 268.87 ± 2.6
109.23 K, Crystal | 272.45 ± 2.6
111.05 K, Crystal | 277.04 ± 2.6
112.84 K, Crystal | 280.4 ± 2.6
114.62 K, Crystal | 283.66 ± 2.7
116.37 K, Crystal | 286.19 ± 2.7
118.1 K, Crystal | 289.83 ± 2.7
119.81 K, Crystal | 291.78 ± 2.7
121.5 K, Crystal | 295.26 ± 2.8
123.18 K, Crystal | 299.07 ± 2.8
124.85 K, Crystal | 302.36 ± 2.8
126.5 K, Crystal | 305.27 ± 2.8
128.13 K, Crystal | 309.31 ± 2.9
129.75 K, Crystal | 313.47 ± 2.9
131.36 K, Crystal | 316.7 ± 2.9
133.51 K, Crystal | 320.85 ± 3
136.04 K, Crystal | 325.43 ± 3
138.47 K, Crystal | 328.35 ± 3
140.85 K, Crystal | 332.7 ± 3.1
143.2 K, Crystal | 334.95 ± 3.1
145.52 K, Crystal | 336.56 ± 3.1
147.82 K, Crystal | 338.15 ± 3.1
150.09 K, Crystal | 340.57 ± 3.1
152.34 K, Crystal | 342.79 ± 3.1
154.57 K, Crystal | 344.26 ± 3.2
156.78 K, Crystal | 346.53 ± 3.2
158.98 K, Crystal | 347.92 ± 3.2
161.16 K, Crystal | 351.38 ± 3.2
163.31 K, Crystal | 355.11 ± 3.2
165.46 K, Crystal | 356.7 ± 3.3
167.59 K, Crystal | 360.16 ± 3.3
169.71 K, Crystal | 363.66 ± 3.3
171.81 K, Crystal | 365.89 ± 3.3
173.91 K, Crystal | 368.25 ± 3.3
175.99 K, Crystal | 370.24 ± 3.4
178.06 K, Crystal | 374.92 ± 3.4
180.1 K, Crystal | 378.77 ± 3.4
182.13 K, Crystal | 381.27 ± 3.5
184.16 K, Crystal | 384.86 ± 3.5
186.15 K, Crystal | 387.43 ± 3.5
188.14 K, Crystal | 391.88 ± 3.5
190.11 K, Crystal | 393.71 ± 3.6
192.06 K, Crystal | 396.41 ± 3.6
194.01 K, Crystal | 400.38 ± 3.6
195.94 K, Crystal | 403.84 ± 3.6
197.86 K, Crystal | 406.78 ± 3.7
199.77 K, Crystal | 410.78 ± 3.7
201.68 K, Crystal | 414.73 ± 3.7
203.58 K, Crystal | 416.01 ± 3.7
205.49 K, Crystal | 418.67 ± 3.7
207.39 K, Crystal | 423.8 ± 3.8
209.27 K, Crystal | 427.28 ± 3.8
213.63 K, Crystal | 430.93 ± 3.8
215.48 K, Crystal | 433.69 ± 3.9
217.33 K, Crystal | 437.16 ± 3.9
219.16 K, Crystal | 440.33 ± 3.9
220.99 K, Crystal | 444.57 ± 4
222.81 K, Crystal | 447.12 ± 4
224.61 K, Crystal | 450.71 ± 4
226.4 K, Crystal | 454.16 ± 4
228.17 K, Crystal | 457.43 ± 4.1
229.91 K, Crystal | 461.64 ± 4.1
231.66 K, Crystal | 464.26 ± 4.1
233.45 K, Crystal | 468.99 ± 4.1
235.26 K, Crystal | 472.26 ± 4.2
237.06 K, Crystal | 475.98 ± 4.2
238.86 K, Crystal | 479.33 ± 4.2
240.62 K, Crystal | 485.92 ± 4.3
242.33 K, Crystal | 489.49 ± 4.3
244.03 K, Crystal | 494.38 ± 4.4
245.76 K, Crystal | 499.28 ± 4.4
248.1 K, Crystal | 502 ± 4.4
250.99 K, Crystal | 505.26 ± 4.4
253.79 K, Crystal | 509.97 ± 4.5
256.52 K, Crystal | 514.43 ± 4.5
259.21 K, Crystal | 517.59 ± 4.5
261.87 K, Crystal | 521.36 ± 4.6
264.51 K, Crystal | 524.15 ± 4.6
267.13 K, Crystal | 529.61 ± 4.6
269.73 K, Crystal | 533.73 ± 4.7
272.3 K, Crystal | 537.73 ± 4.7
274.79 K, Crystal | 541.43 ± 4.7
277.25 K, Crystal | 545.05 ± 4.8
279.67 K, Crystal | 549.95 ± 4.8
282.04 K, Crystal | 553.99 ± 4.8
284.36 K, Crystal | 557.02 ± 4.9
286.64 K, Crystal | 560.07 ± 4.9
288.9 K, Crystal | 564.82 ± 4.9
291.1 K, Crystal | 568.54 ± 4.9
293.23 K, Crystal | 573.27 ± 5
295.4 K, Crystal | 577.71 ± 5
297.6 K, Crystal | 582.62 ± 5.1
299.78 K, Crystal | 586.55 ± 5.1
301.95 K, Crystal | 590.35 ± 5.1
304.05 K, Crystal | 595.77 ± 5.2
306.13 K, Crystal | 598.65 ± 5.2
308.2 K, Crystal | 604.09 ± 5.2
323.46 K, Liquid | 830.56 ± 7
325.28 K, Liquid | 836.77 ± 7.1
327.09 K, Liquid | 842.17 ± 7.1
328.88 K, Liquid | 847.91 ± 7.2
330.65 K, Liquid | 851.32 ± 7.2
332.41 K, Liquid | 855.64 ± 7.2
334.15 K, Liquid | 860.22 ± 7.3
335.87 K, Liquid | 866.7 ± 7.3
337.57 K, Liquid | 869.28 ± 7.4
339.26 K, Liquid | 872.85 ± 7.4

Reference: the NIST ThermoML archive (doi:10.1016/j.jct.2004.06.002)
